Columns and labels:
NKL (IL-2 2.5 ng/mL) [1] = assay: percent inhibition of viability; higher = more inhibition; settings: 72 h
NK-YS (IL-2 2.5 ng/mL) [2] = assay: as above; settings: 72 h
NK-92 (IL-2 2.5 ng/mL) [3] = assay: as above; settings: 72 h
[4] = system: normal primary NK cells, pool 2 (3 donors) (IL-2 2.5 ng/mL); assay: as above; settings: 72 h
YT (IL-2 2.5 ng/mL) [5] = assay: as above; settings: 72 h
KHYG-1 (IL-2 2.5 ng/mL) [6] = assay: as above; settings: 72 h
KAI3 (IL-2 2.5 ng/mL) [7] = assay: as above; settings: 72 h
DERL-7 (IL-2 2.5 ng/mL) [8] = assay: as above; settings: 72 h
[9] = system: normal primary NK cells, pool 1 (3 donors), resting (IL-2 0 ng/mL); assay: as above; settings: 72 h
[10] = system: normal primary NK cells, pool 1 (3 donors) (IL-2 2.5 ng/mL); assay: as above; settings: 72 h
SNK-6 (IL-2 2.5 ng/mL) [11] = assay: as above; settings: 72 h
[12] = system: normal primary NK cells, pool 3 (3 donors) (IL-2 2.5 ng/mL); assay: as above; settings: 72 h
IMC-1 (IL-2 20 ng/mL) [13] = assay: as above; settings: 72 h
[14] = system: normal NK cells expanded with K562-aAPC; assay: drug sensitivity score (DSS) (DSS units); higher = more sensitive; extreme values may be limits of the assay; settings: 72 h; IL-2 2.5 ng/mL
Experimental: (§1)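 Drug sensitivity and resistance testing on K562-aAPC-expanded normal NK cells: 5 concentrations (10-fold steps over a 10,000-fold range), 72 h at 37 °C, viability by CellTiter-Glo normalised to DMSO and benzethonium chloride controls; DSS from the fitted curve.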

NKL (IL-2 2.5 ng/mL) [15] = assay: as above; settings: 72 h
NK-YS (IL-2 2.5 ng/mL) [16] = assay: as above; settings: 72 h
NK-92 (IL-2 2.5 ng/mL) [17] = assay: as above; settings: 72 h
[18] = system: normal primary NK cells, pool 2 (3 donors) (IL-2 2.5 ng/mL); assay: as above; settings: 72 h
YT (IL-2 2.5 ng/mL) [19] = assay: as above; settings: 72 h
KHYG-1 (IL-2 2.5 ng/mL) [20] = assay: as above; settings: 72 h
KAI3 (IL-2 2.5 ng/mL) [21] = assay: as above; settings: 72 h
DERL-7 (IL-2 2.5 ng/mL) [22] = assay: as above; settings: 72 h
[23] = system: normal primary NK cells, pool 1 (3 donors), resting (IL-2 0 ng/mL); assay: as above; settings: 72 h
[24] = system: normal primary NK cells, pool 1 (3 donors) (IL-2 2.5 ng/mL); assay: as above; settings: 72 h
SNK-6 (IL-2 2.5 ng/mL) [25] = assay: as above; settings: 72 h
[26] = system: normal primary NK cells, pool 3 (3 donors) (IL-2 2.5 ng/mL); assay: as above; settings: 72 h
IMC-1 (IL-2 20 ng/mL) [27] = assay: as above; settings: 72 h
[28] = system: normal NK cells expanded with K562-aAPC; assay: percent inhibition of viability; higher = more inhibition; settings: 72 h, IL-2 2.5 ng/mL
Experimental: as §1

CNC(=O)c1ccc(N2C(=S)N(c3cnc(C#N)c(C(F)(F)F)c3)C(=O)C23CCC3)cc1F [ARN 509] (max concentration tested 10000 nM)
percent inhibition of viability [%]
Settings | 1 nM | 10 nM | 100 nM | 1000 nM | 10000 nM
DERL-7 (IL-2 2.5 ng/mL) [8] | 6.41 | -1.09 | -0.93 | -13.3 | -12.6
IMC-1 (IL-2 20 ng/mL) [13] | 2.81 | -1.31 | 5.83 | 9.26 | 16.9
KAI3 (IL-2 2.5 ng/mL) [7] | -2.56 | -12.9 | 0.32 | 4.54 | 27.9
KHYG-1 (IL-2 2.5 ng/mL) [6] | -1.73 | -3.05 | 1.87 | 8.59 | 9.64
NK-92 (IL-2 2.5 ng/mL) [3] | -3.11 | -4.21 | 2.28 | -1.18 | 23
NK-YS (IL-2 2.5 ng/mL) [2] | -3.22 | -1.75 | -0.61 | 1.75 | 15.7
NKL (IL-2 2.5 ng/mL) [1] | -5.58 | -11.3 | -0.18 | -5.48 | 3.63
SNK-6 (IL-2 2.5 ng/mL) [11] | 16.7 | -1.7 | 14.6 | 33.1 | 24.3
YT (IL-2 2.5 ng/mL) [5] | 2.58 | 2.98 | 4.62 | 0.81 | 10.2
[4] | -8.15 | -8.75 | -5.23 | -6.28 | 8.97
[9] | -0.17 | 11.7 | -4.44 | -10.2 | 15.5
[10] | -11.3 | 4.68 | -6.94 | -10.6 | 10.8
[12] | -7.92 | -6.67 | -6.21 | -10.2 | 3.54
[28] | 0.72 | 1.64 | 2.47 | 20 | 14.2

Settings | drug sensitivity score
DERL-7 (IL-2 2.5 ng/mL) [22] | 0
IMC-1 (IL-2 20 ng/mL) [27] | 0.78
KAI3 (IL-2 2.5 ng/mL) [21] | 1.88
KHYG-1 (IL-2 2.5 ng/mL) [20] | 0
NK-92 (IL-2 2.5 ng/mL) [17] | 0.72
NK-YS (IL-2 2.5 ng/mL) [16] | 0.46
NKL (IL-2 2.5 ng/mL) [15] | 0
SNK-6 (IL-2 2.5 ng/mL) [25] | 7.62
YT (IL-2 2.5 ng/mL) [19] | 0
[14] | 3.05
[18] | 0
[23] | 0.11
[24] | 0
[26] | 0

COc1cc(N2CCC(N3CCN(C)CC3)CC2)ccc1Nc1ncnc(Nc2ccccc2S(=O)(=O)C(C)C)n1 [ASP3026] (max concentration tested 10000 nM)
percent inhibition of viability [%]
Settings | 1 nM | 10 nM | 100 nM | 1000 nM | 10000 nM
DERL-7 (IL-2 2.5 ng/mL) [8] | 0.73 | -6.32 | 2.12 | 0.42 | 57.2
IMC-1 (IL-2 20 ng/mL) [13] | -8.57 | -5.26 | -7.48 | -3.28 | 98.9
KAI3 (IL-2 2.5 ng/mL) [7] | 5.1 | 3.91 | 7.67 | 16.4 | 42.7
KHYG-1 (IL-2 2.5 ng/mL) [6] | -6.71 | 0.13 | -0.92 | 10.2 | 61.3
NK-92 (IL-2 2.5 ng/mL) [3] | -10.8 | -22.5 | -27.1 | -14.8 | 22.2
NK-YS (IL-2 2.5 ng/mL) [2] | -5.41 | -0.07 | -1.63 | 6.41 | 44.9
NKL (IL-2 2.5 ng/mL) [1] | -3.77 | -9.59 | 5.62 | 18.9 | 47.8
SNK-6 (IL-2 2.5 ng/mL) [11] | -14.8 | -8.98 | -26.5 | -35.9 | 8.43
YT (IL-2 2.5 ng/mL) [5] | -2.02 | -0.55 | 1.22 | 12.5 | 69.4
[4] | -4.59 | -7.52 | 3.32 | -3.09 | 28.1
[9] | -11.5 | -0.46 | -1.76 | 10.4 | 39.3
[10] | -1.83 | 5.98 | 6.01 | 9.21 | 38.7
[12] | 1.7 | -6.92 | 8.07 | 2.81 | 13.3
[28] | 0.75 | -1.15 | 0.69 | 7.2 | 96.3

Settings | drug sensitivity score
DERL-7 (IL-2 2.5 ng/mL) [22] | 3.14
IMC-1 (IL-2 20 ng/mL) [27] | 5.24
KAI3 (IL-2 2.5 ng/mL) [21] | 3.79
KHYG-1 (IL-2 2.5 ng/mL) [20] | 5.05
NK-92 (IL-2 2.5 ng/mL) [17] | 0.4
NK-YS (IL-2 2.5 ng/mL) [16] | 3.39
NKL (IL-2 2.5 ng/mL) [15] | 4.54
SNK-6 (IL-2 2.5 ng/mL) [25] | 0
YT (IL-2 2.5 ng/mL) [19] | 5.89
[14] | 6.45
[18] | 0.97
[23] | 3.53
[24] | 3.22
[26] | 0.03

Source: the supplement of paper PMC5908809
